Source: US9708318B2, “Bicyclic heterocycles as FGFR4 inhibitors” (Incyte Corporation, priority 2015, dated 2017)
Like-named read-outs stand apart in the source and are kept apart here.

Assays:
[1] = molecular target: FGFR4 (Homo sapiens (Human), UniProt P22455); assay: FGFR Enzymatic Assay (FRET peptide phosphorylation), FGFR4; assay type: biochemical; conditions: for FGFR1/FGFR4 IC50 ratio / FGFR2/FGFR4 IC50 ratio / FGFR3/FGFR4 IC50 ratio: FGFR4 selectivity
Description: (§1) The inhibitor potency of the exemplified compounds was measured in an enzyme assay that measures peptide phosphorylation using FRET measurements to detect product formation. Inhibitors were serially diluted in DMSO and a volume of 0.5 μL was transferred to the wells of a 384-well plate.
(§2) The enzymes were purchased from Millipore or Invitrogen.
(§3) GraphPad prism3 was used to analyze the data.

[2] = molecular target: FGFR3 enzyme (Homo sapiens (Human), UniProt P22607); assay: FGFR Enzymatic Assay (FRET peptide phosphorylation), FGFR3; assay type: biochemical; conditions: for FGFR1/FGFR3 IC50 ratio / FGFR4/FGFR3 IC50 ratio: FGFR3 selectivity
Sequence of FGFR3 enzyme (P22607 23-806): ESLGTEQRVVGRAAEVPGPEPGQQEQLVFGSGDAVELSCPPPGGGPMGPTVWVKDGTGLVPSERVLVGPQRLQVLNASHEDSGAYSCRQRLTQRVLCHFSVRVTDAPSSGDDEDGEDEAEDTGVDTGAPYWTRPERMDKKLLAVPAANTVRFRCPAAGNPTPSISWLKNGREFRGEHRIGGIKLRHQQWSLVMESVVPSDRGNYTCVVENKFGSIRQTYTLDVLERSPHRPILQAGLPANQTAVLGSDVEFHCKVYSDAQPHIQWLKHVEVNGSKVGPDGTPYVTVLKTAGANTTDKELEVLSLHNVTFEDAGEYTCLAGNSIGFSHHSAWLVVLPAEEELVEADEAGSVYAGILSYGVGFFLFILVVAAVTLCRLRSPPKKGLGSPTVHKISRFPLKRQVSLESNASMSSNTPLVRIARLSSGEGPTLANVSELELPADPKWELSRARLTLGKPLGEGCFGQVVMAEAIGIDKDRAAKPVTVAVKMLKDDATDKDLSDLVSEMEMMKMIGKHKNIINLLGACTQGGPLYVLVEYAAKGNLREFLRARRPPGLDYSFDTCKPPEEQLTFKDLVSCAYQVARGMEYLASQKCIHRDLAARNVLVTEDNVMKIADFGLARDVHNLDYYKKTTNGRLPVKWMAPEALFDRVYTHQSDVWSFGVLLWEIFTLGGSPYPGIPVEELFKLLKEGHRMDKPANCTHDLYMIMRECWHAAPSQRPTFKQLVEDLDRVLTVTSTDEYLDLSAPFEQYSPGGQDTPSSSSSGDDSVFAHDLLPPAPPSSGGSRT
Description: as §1, §3

[3] = molecular target: FGFR2 (Homo sapiens (Human), UniProt P21802); assay: FGFR Enzymatic Assay (FRET peptide phosphorylation), FGFR2; assay type: biochemical
Sequence of FGFR2 (P21802 22-821): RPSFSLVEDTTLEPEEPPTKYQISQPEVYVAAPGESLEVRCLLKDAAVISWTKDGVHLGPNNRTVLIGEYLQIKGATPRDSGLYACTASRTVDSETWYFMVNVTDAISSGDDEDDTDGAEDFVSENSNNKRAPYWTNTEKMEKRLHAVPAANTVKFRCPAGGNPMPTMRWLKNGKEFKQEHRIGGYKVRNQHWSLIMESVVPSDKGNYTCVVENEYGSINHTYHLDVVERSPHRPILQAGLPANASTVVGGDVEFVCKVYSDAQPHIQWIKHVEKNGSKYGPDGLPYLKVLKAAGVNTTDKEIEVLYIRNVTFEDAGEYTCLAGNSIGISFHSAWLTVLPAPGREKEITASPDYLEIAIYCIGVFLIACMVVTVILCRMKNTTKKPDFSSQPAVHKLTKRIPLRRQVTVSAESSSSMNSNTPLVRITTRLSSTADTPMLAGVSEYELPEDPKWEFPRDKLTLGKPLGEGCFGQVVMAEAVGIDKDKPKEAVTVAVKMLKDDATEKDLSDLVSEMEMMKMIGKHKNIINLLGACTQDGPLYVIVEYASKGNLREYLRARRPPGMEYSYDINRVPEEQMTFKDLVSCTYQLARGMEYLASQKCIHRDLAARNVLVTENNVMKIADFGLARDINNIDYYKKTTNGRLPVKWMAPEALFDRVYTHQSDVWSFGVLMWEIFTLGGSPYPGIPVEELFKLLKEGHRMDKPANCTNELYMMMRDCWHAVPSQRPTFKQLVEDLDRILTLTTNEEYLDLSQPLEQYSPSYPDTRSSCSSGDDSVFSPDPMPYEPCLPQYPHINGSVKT
Description: as §1, §2, §3

[4] = molecular target: FGFR1 (Homo sapiens (Human), UniProt P11362); assay: FGFR Enzymatic Assay (FRET peptide phosphorylation), FGFR1
Sequence of FGFR1 (P11362 22-822): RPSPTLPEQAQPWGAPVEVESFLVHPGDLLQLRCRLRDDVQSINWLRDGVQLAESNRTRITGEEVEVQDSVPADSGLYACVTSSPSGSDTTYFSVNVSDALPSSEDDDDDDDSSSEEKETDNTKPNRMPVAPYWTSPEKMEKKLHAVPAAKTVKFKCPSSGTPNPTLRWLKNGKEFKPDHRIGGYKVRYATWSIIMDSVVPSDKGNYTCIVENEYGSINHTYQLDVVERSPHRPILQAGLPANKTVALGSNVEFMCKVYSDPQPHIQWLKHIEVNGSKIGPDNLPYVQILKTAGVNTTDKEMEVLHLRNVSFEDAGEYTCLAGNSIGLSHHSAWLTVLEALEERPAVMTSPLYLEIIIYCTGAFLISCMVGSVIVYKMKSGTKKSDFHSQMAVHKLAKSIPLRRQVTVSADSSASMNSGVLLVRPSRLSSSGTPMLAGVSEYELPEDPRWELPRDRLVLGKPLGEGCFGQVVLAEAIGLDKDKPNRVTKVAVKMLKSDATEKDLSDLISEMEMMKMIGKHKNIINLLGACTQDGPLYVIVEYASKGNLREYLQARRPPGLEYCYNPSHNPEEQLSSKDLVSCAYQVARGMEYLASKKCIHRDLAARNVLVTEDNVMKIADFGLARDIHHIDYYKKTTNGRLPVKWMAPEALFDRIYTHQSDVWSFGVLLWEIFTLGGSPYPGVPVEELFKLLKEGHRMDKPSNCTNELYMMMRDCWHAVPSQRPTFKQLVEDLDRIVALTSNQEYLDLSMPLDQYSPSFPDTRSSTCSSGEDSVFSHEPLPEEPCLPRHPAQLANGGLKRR

[5] = pre-incubated for 5 to 10 minutes
[6] = pre-incubated for 5 to 10 minutes, read-out: FGFR3 IC50
[7] = pre-incubated for 4 hours, read-out: FGFR3 IC50
[8] = read-out: FGFR1 IC50, pre-incubated for 5 to 10 minutes
[9] = read-out: FGFR1 IC50, pre-incubated for 4 hours
[10] = FGFR1 IC50 (nM), pre-incubated for 5 to 10 minutes
[11] = FGFR1 IC50 (nM), pre-incubated for 4 hours

Sequence of FGFR4 (P22455 22-802): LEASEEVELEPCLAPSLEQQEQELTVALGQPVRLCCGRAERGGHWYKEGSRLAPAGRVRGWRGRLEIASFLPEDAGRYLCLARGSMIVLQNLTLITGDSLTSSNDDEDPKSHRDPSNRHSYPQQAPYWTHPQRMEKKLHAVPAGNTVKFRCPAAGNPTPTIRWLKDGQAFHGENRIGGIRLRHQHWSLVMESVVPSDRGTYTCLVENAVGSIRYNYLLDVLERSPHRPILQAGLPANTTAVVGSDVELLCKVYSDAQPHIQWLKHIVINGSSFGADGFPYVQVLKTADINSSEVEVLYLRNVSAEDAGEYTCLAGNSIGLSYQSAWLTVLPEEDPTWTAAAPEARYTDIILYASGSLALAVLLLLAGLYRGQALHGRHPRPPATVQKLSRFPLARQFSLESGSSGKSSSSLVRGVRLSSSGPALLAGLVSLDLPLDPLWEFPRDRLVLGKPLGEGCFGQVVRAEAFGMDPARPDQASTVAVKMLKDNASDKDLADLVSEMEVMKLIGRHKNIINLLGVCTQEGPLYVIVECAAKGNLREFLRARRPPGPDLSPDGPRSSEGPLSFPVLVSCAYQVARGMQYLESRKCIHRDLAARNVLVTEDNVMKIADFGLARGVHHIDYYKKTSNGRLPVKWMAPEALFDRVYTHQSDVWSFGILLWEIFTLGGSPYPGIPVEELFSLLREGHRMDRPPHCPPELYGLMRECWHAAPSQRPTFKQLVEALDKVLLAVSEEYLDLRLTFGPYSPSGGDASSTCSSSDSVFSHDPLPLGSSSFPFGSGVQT

SMILES	FGFR1/FGFR4 IC50 ratio [1, 5]	FGFR2/FGFR4 IC50 ratio [1, 5]	FGFR3/FGFR4 IC50 ratio [1, 5]	FGFR1/FGFR4 IC50 ratio ([1]; pre-incubated for 4 hours)	FGFR2/FGFR4 IC50 ratio ([1]; pre-incubated for 4 hours)	FGFR3/FGFR4 IC50 ratio ([1]; pre-incubated for 4 hours)	IC50 [1, 5]	IC50 ([1]; pre-incubated for 4 hours)	FGFR1/FGFR3 IC50 ratio ([2]; pre-incubated for 4 hours)	IC50 [2, 6]	IC50 [2, 7]	IC50 [3, 5]	IC50 ([3]; pre-incubated for 4 hours)	IC50 [4, 8]	IC50 [4, 9]	IC50 [4, 10]	FGFR4/FGFR3 IC50 ratio ([2]; pre-incubated for 4 hours)	IC50 [4, 11]	IC50 [2]
COc1cc(OC)c(F)c(N2Cc3cnc(-c4cncc(-n5ccnc5)c4)cc3C3(CC3)C2=O)c1F [Example 12, 6′-(5-(1H-imidazol-1-yl)pyridin-3-yl)-2′-(2,6-difluoro-3,5-dimethoxyphenyl)-1′H-spiro[cyclopropane-1,4′-[2,7]naphthyridin]-3′(2′H)-one]	>50	>25	>20	>50	>25	>10	< 10 nM	< 10 nM	>3	30 to 200 nM	30 to 200 nM	30 to 200 nM	30 to 200 nM	> 200 nM	> 200 nM				
COc1cc(OC)c(F)c(N2Cc3cnc(-c4ccc(C5(C#N)CCC5)nc4)cc3N(C3CCC3)C2=O)c1F [Example 136, 1-(5-(1-cyclobutyl-3-(2,6-difluoro-3,5-dimethoxyphenyl)-2-oxo-1,2,3,4-tetrahydropyrido[4,3-d]pyrimidin-7-yl)pyridin-2-yl)cyclobutanecarbonitrile]							30 to 200 nM			10 to 30 nM		10 to 30 nM				30 to 200 nM			
CCN1C(=O)N(c2c(F)c(OC)cc(OC)c2F)Cc2cnc(-c3ccc(C(=O)NCCO)nc3)cc21 [Example 177, 5-(3-(2,6-difluoro-3,5-dimethoxyphenyl)-1-ethyl-2-oxo-1,2,3,4-tetrahydropyrido[4,3-d]pyrimidin-7-yl)-N-(2-hydroxyethyl)picolinamide]								10 to 30 nM	>5		< 10 nM		< 10 nM				>10	10 to 30 nM	
COc1cc(OC)c(F)c(N2Cc3cnc(-c4ccc(C#N)nc4)cc3C3(CC3)C2=O)c1F [Example 20, 5-(2′-(2,6-difluoro-3,5-dimethoxyphenyl)-3′-oxo-2′,3′-dihydro-1′H-spiro[cyclopropane-1,4′-[2,7]naphthyridine]-6′-yl)picolinonitrile]								10 to 30 nM	>5		10 to 30 nM		10 to 30 nM					30 to 200 nM	
COc1cc(OC)c(F)c(N2Cc3cnc(-c4cn(C)nc4C)cc3N(c3ccncn3)C2=O)c1F [Example 45, 3-(2,6-difluoro-3,5-dimethoxyphenyl)-7-(1,3-dimethyl-1H-pyrazol-4-yl)-1-pyrimidin-4-yl-3,4-dihydropyrido[4,3-d]pyrimidin-2(1H)-one]								30 to 200 nM	>10		< 10 nM		10 to 30 nM				>10	30 to 200 nM	
COc1cc(OC)c(F)c(N2Cc3cnc(-c4ccc(C5(C#N)CCC5)nc4)cc3N(c3ccncn3)C2=O)c1F [Example 135, 1-(5-(3-(2,6-difluoro-3,5-dimethoxyphenyl)-2-oxo-1-(pyrimidin-4-yl)-1,2,3,4-tetrahydropyrido[4,3-d]pyrimidin-7-yl)pyridin-2-yl)cyclobutanecarbonitrile]								30 to 200 nM	>5		< 10 nM		< 10 nM				>10	30 to 200 nM	
COc1cc(OC)c(F)c(N2Cc3cnc(-c4cn(C)nc4C)cc3N(C3CCN(C(C)=O)CC3)C2=O)c1F [Example 43, 1-(1-acetylpiperidin-4-yl)-3-(2,6-difluoro-3,5-dimethoxyphenyl)-7-(1,3-dimethyl-1H-pyrazol-4-yl)-3,4-dihydropyrido[4,3-d]pyrimidin-2(1H)-one]								30 to 200 nM	>10				30 to 200 nM		> 200 nM		>5		10 to 30 nM
COc1cc(OC)c(F)c(N2Cc3cnc(-c4ccc(C5(C#N)CCC5)nc4)cc3N(CC3CC3)C2=O)c1F [Example 140, 1-(5-(1-(cyclopropylmethyl)-3-(2,6-difluoro-3,5-dimethoxyphenyl)-2-oxo-1,2,3,4-tetrahydropyrido[4,3-d]pyrimidin-7-yl)pyridin-2-yl)cyclobutanecarbonitrile]							30 to 200 nM			10 to 30 nM		< 10 nM				30 to 200 nM			
COc1cc(OC)c(F)c(N2Cc3cnc(-c4cncc(F)c4)cc3C3(CC3)C2=O)c1F [Example 5, 2′-(2,6-difluoro-3,5-dimethoxyphenyl)-6′-(5-fluoropyridin-3-yl)-1′H-spiro[cyclopropane-1,4′-[2,7]naphthyridin]-3′(2′H)-one]	>10	>5	>4	>10	>5	>1	< 10 nM	< 10 nM	>3	10 to 30 nM	10 to 30 nM	10 to 30 nM	10 to 30 nM			30 to 200 nM		30 to 200 nM	
CCn1cc(N2C(=O)N(c3c(F)c(OC)cc(OC)c3F)Cc3cnc(-c4cn(C)nc4C)cc32)cn1 [Example 131, 3-(2,6-difluoro-3,5-dimethoxyphenyl)-7-(1,3-dimethyl-1H-pyrazol-4-yl)-1-(1-ethyl-1H-pyrazol-4-yl)-3,4-dihydropyrido[4,3-d]pyrimidin-2(1H)-one]								> 200 nM	>3		10 to 30 nM		10 to 30 nM				>10	30 to 200 nM	
COc1cc(OC)c(F)c(N2Cc3cnc(-c4cncc(C#N)c4)cc3C3(CC3)C2=O)c1F [Example 8, 5-(2′-(2,6-difluoro-3,5-dimethoxyphenyl)-3′-oxo-2′,3′-dihydro-1′H-spiro[cyclopropane-1,4′-[2,7]naphthyridine]-6′-yl)nicotinonitrile]	>50	>10	>10	>50	>10	>10	10 to 30 nM	10 to 30 nM	>5	30 to 200 nM	30 to 200 nM	> 200 nM	> 200 nM	> 200 nM	> 200 nM				
COc1cc(OC)c(F)c(N2Cc3cnc(-c4cn(CC#N)nc4C)cc3C3(CC3)C2=O)c1F [Example 153, 2-(4-(2′-(2,6-difluoro-3,5-dimethoxyphenyl)-3′-oxo-2′,3′-dihydro-1′H-spiro[cyclopropane-1,4′-[2,7]naphthyridine]-6′-yl)-3-methyl-1H-pyrazol-1-yl)acetonitrile]								10 to 30 nM	>5		< 10 nM		10 to 30 nM				>3	30 to 200 nM	
CCN1C(=O)N(c2c(F)c(OC)cc(OC)c2F)Cc2cnc(-c3ccc(C(N)=O)nc3)cc21 [Example 184, 5-(3-(2,6-difluoro-3,5-dimethoxyphenyl)-1-ethyl-2-oxo-1,2,3,4-tetrahydropyrido[4,3-d]pyrimidin-7-yl)picolinamide]								10 to 30 nM	>5		< 10 nM		< 10 nM				>5	10 to 30 nM	
COc1cc(OC)c(F)c(N2Cc3cnc(-c4cnn(CC5CN(S(C)(=O)=O)C5)c4)cc3C3(CC3)C2=O)c1F [Example 166, 2′-(2,6-difluoro-3,5-dimethoxyphenyl)-6′-(1-((1-(methylsulfonyl)azetidin-3-yl)methyl)-1H-pyrazol-4-yl)-1′H-spiro[cyclopropane-1,4′-[2,7]naphthyridin]-3′(2′H)-one]								10 to 30 nM	>3		< 10 nM		< 10 nM				>3	10 to 30 nM	
